# No end group written: not given here.
# Legend:
# [1] = system: Escherichia coli CGMCC 1.2389; conditions: CGMCC 1.2389, 24 h
# [2] = system: Enterococcus faecium CGMCC 1.131; conditions: CGMCC 1.131, 24 h
# [3] = system: Pseudomonas aeruginosa QZ18071; conditions: QZ18071, 24 h
# [4] = system: Staphylococcus aureus CGMCC 1.2465; conditions: CGMCC 1.2465, 24 h
# [5] = system: Staphylococcus aureus QZ19131; conditions: QZ19131, 24 h
# [6] = system: Pseudomonas aeruginosa CGMCC 1.1785; conditions: CGMCC 1.1785, 24 h
# [7] = system: Bacillus cereus CGMCC 1.3760; conditions: CGMCC 1.3760, 24 h
# Escherichia coli QZ18109 = conditions: QZ18109, 24 h
# [8] = system: Acinetobacter baumannii CGMCC 1.6769; conditions: CGMCC 1.6769, 24 h
# [9] = system: Cryptococcus neoformans CGMCC 2.1563; conditions: CGMCC 2.1563, 24 h
# [10] = system: Acinetobacter baumannii QZ20141; conditions: QZ20141, 24 h
# [11] = system: Enterococcus faecium QZ18080; conditions: QZ18080, 24 h
# [12] = system: Candida albicans CGMCC 2.2411; conditions: CGMCC 2.2411, 24 h
# [13] = system: Shigella flexneri CGMCC 1.1868; conditions: 24 h
# [14] = system: Fusarium solani CGMCC 3.584; conditions: 24 h
# [15] = system: Enterococcus faecalis QZ19138; conditions: QZ19138, 24 h
# [16] = system: Klebsiella pneumoniae QZ18106; conditions: QZ18106, 24 h
# [17] = system: Fusarium graminearum CGMCC 3.4521; conditions: Filamentous fungi, incubated 24 hours
# [18] = system: epithelioma papulosum cyprini (EPC) cells; format: cell-based
# Method: (§1) IV. Cytotoxicity of the […]44-63 is measured and evaluated by using 3-(4,5-dimethylthiazol-2-yl)-5-(3-carboxymethoxyphenyl)-2-(4-sulfophenyl)-2H-tetrazolium (MTS) 1. Human embryonic kidney 293T (HEK-293T) cells and epithelioma papulosum […] (EPC) cells are selected to assess the cytotoxicity of the […]44-63. […] HEK-293T cells are incubated in a cell incubator with 5% CO2 at 37° C., and EPC cells are incubated in a cell incubator with 5% CO2 at 28° C. (2) 50 μL of medium is carefully sucked out, fresh media with or without different concentrations of the […]44-63 are respectively added to a corresponding well, put in a corresponding cell condition, and incubated for another 24 hours while leaving to stand. (3) 20 μL of an MTS-Phenazinemethosulfate (PMS) mixed solution is added and incubated for 4 hours, absorbance of each well is measured at OD492 nm in a microplate reader, and cell viabilities are calculated.
# [19] = system: Human embryonic kidney 293T (HEK-293T) cells; format: cell-based
# Method: as §1
# [20] = system: Listeria monocytogenes CGMCC 1.10753; conditions: CGMCC 1.10753, 24 h
substance,measurement,setting,value
GKKKKRNMMKTKEPGIIFFF-NH2 [Scyampcin44-63],MBC,[1],0 to 3 µM
same,MBC,[2],0 to 3 µM
same,MBC,[3],6 to 12 µM
same,MBC,[4],3 to 6 µM
same,MBC,[5],3 to 6 µM
same,MBC,[6],6 to 12 µM
same,MBC,[7],3 to 6 µM
same,MBC,Escherichia coli QZ18109,0 to 3 µM
same,MBC,[8],0 to 3 µM
same,MBC,[9],0 to 3 µM
same,MBC,[10],3 to 6 µM
same,MBC,[11],0 to 3 µM
same,MBC,[12],3 to 6 µM
same,MBC,[13],0 to 3 µM
same,MBC,[14],3 to 6 µM
same,MBC,[15],3 to 6 µM
same,MBC,[16],3 to 6 µM
same,MBC,[17],3 to 6 µM
same,"Cytotoxicity (cell viability, MTS)",[18],no cytotoxicity
same,"Cytotoxicity (cell viability, MTS)",[19],no cytotoxicity
same,MBC,[20],0 to 3 µM

# From patent US20240138406A1, “ANTIMICROBIAL PEPTIDE SCYAMPCIN44-63 AND APPLICATION THEREOF” (Xiamen University, priority 2021, published 2024)
